Results on 33 compounds are retold here after US9187472B2 (AbbVie Inc., priority 2012, dated 2015).

The structures appear in SMILES notation.

The subject of the assay is PC3 cells. The experiment in a line: NAMPT Cell Proliferation Assay. It is filed as cell-based. The following applies: Homo sapiens, PC-3, 120 h, 5 days incubation, cell viability by Cell Titer Glo. Summed up:
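Seed PC3 at 500 cells/well (RPMI, 10% HI-FBS), attach overnight; add compound, 10-fold series 10 μM → 1×10^−5 μM; incubate 5 d, 37° C/5% CO2; luminescent viability readout; fit % inhibition sigmoidally for IC50.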
In turn, `O=C(NCc1ccn2ccnc2c1)c1ccc(C2CCN(C(=O)Cc3cccnc3Cl)CC2)cc1` [Example 972, 4-{1-[(2-chloropyridin-3-yl)acetyl]piperidin-4-yl}-N-(imidazo[1,2-a]pyridin-7-ylmethyl)benzamide] showed an IC50 of 28.9 nM.

In turn, `O=C(NCc1ccn2ccnc2c1)c1ccc(-c2cnn(CCN3CCNCC3)c2)o1` [Example 889, N-(imidazo[1,2-a]pyridin-7-ylmethyl)-5-{1-[2-(piperazin-1-yl)ethyl]-1H-pyrazol-4-yl}furan-2-carboxamide] had an IC50 of 651 nM.

`O=C(NCc1ccn2ccnc2c1)c1ccc(C2CCN(C(=O)c3cnc4c(c3)CCCO4)CC2)cc1` [Example 987, 4-[1-(3,4-dihydro-2H-pyrano[2,3-b]pyridin-6-ylcarbonyl)piperidin-4-yl]-N-(imidazo[1,2-a]pyridin-7-ylmethyl)benzamide] registered a 50% inhibitory concentration (IC50) of 543 nM.

`N#Cc1ccc(C(=O)N2CCC(c3ccc(C(=O)NCc4ccn5ccnc5c4)cc3)CC2)c(Cl)c1` [Example 934, 4-[1-(2-chloro-4-cyanobenzoyl)piperidin-4-yl]-N-(imidazo[1,2-a]pyridin-7-ylmethyl)benzamide] displayed an IC50 of 6.38 nM.

For `Cc1cc(C(=O)N2CCC(c3ccc(C(=O)NCc4ccn5ccnc5c4)cc3)CC2)nn1C(F)F` [Example 1109, 4-(1-{[1-(difluoromethyl)-5-methyl-1H-pyrazol-3-yl]carbonyl}piperidin-4-yl)-N-(imidazo[1,2-a]pyridin-7-ylmethyl)benzamide], the half-maximal inhibitory concentration (IC50) was found to be 9.21 nM.

Turning to `O=C(NCc1ccn2ccnc2c1)c1ccc(C2CCN(C(=O)c3ccc4occc4c3)CC2)cc1` [Example 1112, 4-[1-(1-benzofuran-5-ylcarbonyl)piperidin-4-yl]-N-(imidazo[1,2-a]pyridin-7-ylmethyl)benzamide], it took 16.4 nM to reach half-maximal inhibition (IC50).

The compound `CCc1nc(C(=O)N2CCC(c3ccc(C(=O)NCc4ccn5ccnc5c4)cc3)CC2)cs1` [Example 1005, 4-{1-[(2-ethyl-1,3-thiazol-4-yl)carbonyl]piperidin-4-yl}-N-(imidazo[1,2-a]pyridin-7-ylmethyl)benzamide] showed a half-inhibitory concentration (IC50) of 74.7 nM.

`O=C(NCc1ccn2ccnc2c1)Nc1ccc(C2CCN(C(=O)c3ccccc3)CC2)cc1F` [Example 1069, 1-[4-(1-benzoylpiperidin-4-yl)-2-fluorophenyl]-3-(imidazo[1,2-a]pyridin-7-ylmethyl)urea]: the IC50 is 1.23 nM.

For the compound `O=C(NCc1ccn2ccnc2c1)Nc1ccc(C2CCN(C(=O)C(CO)c3ccccc3)CC2)cc1` (stereo not drawn) [Example 948, 1-{4-[1-(3-hydroxy-2-phenylpropanoyl)piperidin-4-yl]phenyl}-3-(imidazo[1,2-a]pyridin-7-ylmethyl)urea], it took 5.39 nM to reach half-maximal inhibition (IC50).

In turn, `O=C(NCc1ccn2ccnc2c1)c1ccc(NC(=O)c2cc(F)cc(F)c2)cc1` [Example 871, 3,5-difluoro-N-{4-[(imidazo[1,2-a]pyridin-7-ylmethyl)carbamoyl]phenyl}benzamide] yielded an IC50 of 7300 nM.

For `Cc1ccc(F)c(C(=O)N2CCC(c3ccc(NC(=O)NCc4ccn5ccnc5c4)cc3)CC2)n1` [Example 1017, 1-(4-{1-[(3-fluoro-6-methylpyridin-2-yl)carbonyl]piperidin-4-yl}phenyl)-3-(imidazo[1,2-a]pyridin-7-ylmethyl)urea], the IC50 was 2.29 nM.

`O=C(Cc1ccc2nncn2c1)Nc1ccc(C2CCN(C(=O)c3ccccc3F)CC2)cc1` [Example 1162, N-{4-[1-(2-fluorobenzoyl)piperidin-4-yl]phenyl}-2-([1,2,4]triazolo[4,3-a]pyridin-6-yl)acetamide] had a 50% inhibitory concentration (IC50) of 61.8 nM.

Regarding `CC(C)=CC(=O)N1CCC(c2ccc(C(=O)NCc3ccn4ccnc4c3)cc2)CC1` [Example 914, N-(imidazo[1,2-a]pyridin-7-ylmethyl)-4-[1-(3-methylbut-2-enoyl)piperidin-4-yl]benzamide], the IC50 is 77.2 nM.

Compound `O=C(NCc1ccn2ccnc2c1)Nc1ccc(C2CCN(C(=O)c3cc4occc4s3)CC2)cc1` [Example 1129, 1-(imidazo[1,2-a]pyridin-7-ylmethyl)-3-{4-[1-(thieno[3,2-b]furan-5-ylcarbonyl)piperidin-4-yl]phenyl}urea] yielded a half-inhibitory concentration (IC50) of 8.05 nM.

For `CC[C@H](C)C(=O)N1CCC(c2ccc(NC(=O)NCc3ccn4ccnc4c3)c(F)c2)CC1` [Example 1073, 1-(2-fluoro-4-{1-[(2S)-2-methylbutanoyl]piperidin-4-yl}phenyl)-3-(imidazo[1,2-a]pyridin-7-ylmethyl)urea], the 50% inhibitory concentration (IC50) turned out to be 3.88 nM.

For the compound `N#Cc1ccc(C(=O)N2CCC(c3ccc(C(=O)NCc4ccn5ccnc5c4)cc3)CC2)s1` [Example 1093, 4-{1-[(5-cyanothiophen-2-yl)carbonyl]piperidin-4-yl}-N-(imidazo[1,2-a]pyridin-7-ylmethyl)benzamide], the 50% inhibitory concentration (IC50) worked out at 565 nM.

For `CC(C(=O)N1CCC(c2ccc(C(=O)NCc3ccn4ccnc4c3)cc2)CC1)n1ccc(C2CC2)n1` (stereo not drawn) [Example 1106, 4-{1-[2-(3-cyclopropyl-1H-pyrazol-1-yl)propanoyl]piperidin-4-yl}-N-(imidazo[1,2-a]pyridin-7-ylmethyl)benzamide], the concentration for half-maximal inhibition (IC50) was determined as 27.5 nM.

On to `CC1(C(=O)N2CCC(c3ccc(C(=O)NCc4cn5ccnc5cn4)s3)CC2)CC1` [Example 839, N-(imidazo[1,2-a]pyrazin-6-ylmethyl)-5-{1-[(1-methylcyclopropyl)carbonyl]piperidin-4-yl}thiophene-2-carboxamide], for which half-maximal inhibition (IC50) required 0.607 nM.

On to `COc1csc(C(=O)N2CCC(c3ccc(NC(=O)NCc4ccn5ccnc5c4)cc3)CC2)c1` [Example 1130, 1-(imidazo[1,2-a]pyridin-7-ylmethyl)-3-(4-{1-[(4-methoxythiophen-2-yl)carbonyl]piperidin-4-yl}phenyl)urea], for which the IC50 amounted to 2.96 nM.

With `O=C(NCc1ccn2ccnc2c1)c1ccc(C2CCN(C(=O)C3=Cc4ccccc4OC3)CC2)cc1` [Example 974, 4-[1-(2H-chromen-3-ylcarbonyl)piperidin-4-yl]-N-(imidazo[1,2-a]pyridin-7-ylmethyl)benzamide], the IC50 amounted to 28.7 nM.

In turn, `O=C(NCc1ccn2ccnc2c1)c1ccc(C2CCN(C(=O)c3ccnn3C(F)F)CC2)cc1` [Example 969, 4-(1-{[1-(difluoromethyl)-1H-pyrazol-5-yl]carbonyl}piperidin-4-yl)-N-(imidazo[1,2-a]pyridin-7-ylmethyl)benzamide] registered a concentration for half-maximal inhibition (IC50) of 6.36 nM.

In turn, `Cc1oc(C(C)C)cc1C(=O)N1CCC(c2ccc(C(=O)NCc3ccn4ccnc4c3)cc2)CC1` [Example 1064, N-(imidazo[1,2-a]pyridin-7-ylmethyl)-4-(1-{[2-methyl-5-(propan-2-yl)furan-3-yl]carbonyl}piperidin-4-yl)benzamide] came in with a concentration for half-maximal inhibition (IC50) of 4.12 nM.

`Cn1ncc2cccc(C(=O)N3CCC(c4ccc(NC(=O)NCc5ccn6ccnc6c5)cc4)CC3)c21` [Example 1146, 1-(imidazo[1,2-a]pyridin-7-ylmethyl)-3-(4-{1-[(1-methyl-1H-indazol-7-yl)carbonyl]piperidin-4-yl}phenyl)urea] yielded an IC50 of 1.88 nM.

`N#Cc1ccc(CC(=O)N2CCC(c3ccc(C(=O)NCc4ccn5ccnc5c4)cc3)CC2)cc1` [Example 998, 4-{1-[(4-cyanophenyl)acetyl]piperidin-4-yl}-N-(imidazo[1,2-a]pyridin-7-ylmethyl)benzamide] displayed a concentration for half-maximal inhibition (IC50) of 123 nM.

Regarding `O=C(NCc1ccn2ccnc2c1)Nc1ccc(C2CCN(C(=O)c3ccnn3C3CCCC3)CC2)cc1` [Example 1137, 1-(4-{1-[(1-cyclopentyl-1H-pyrazol-5-yl)carbonyl]piperidin-4-yl}phenyl)-3-(imidazo[1,2-a]pyridin-7-ylmethyl)urea], the IC50 was 0.277 nM.

For the compound `O=C(NCc1ccn2ccnc2c1)c1ccc(-c2cnn(Cc3ccccc3)c2)s1` [Example 885, 5-(1-benzyl-1H-pyrazol-4-yl)-N-(imidazo[1,2-a]pyridin-7-ylmethyl)thiophene-2-carboxamide], half-maximal inhibition (IC50) was put at 5.33 nM.

`COc1cccc(CC(=O)N2CCC(c3ccc(C(=O)NCc4ccn5ccnc5c4)cc3)CC2)c1` [Example 933, N-(imidazo[1,2-a]pyridin-7-ylmethyl)-4-{1-[(3-methoxyphenyl)acetyl]piperidin-4-yl}benzamide]: the 50% inhibitory concentration (IC50) turned out to be 71.7 nM.

In turn, `CCN(CC)CCC(=O)N1CCC(c2ccc(NC(=O)NCc3ccn4ccnc4c3)cc2)CC1` [Example 950, 1-{4-[1-(N,N-diethyl-beta-alanyl)piperidin-4-yl]phenyl}-3-(imidazo[1,2-a]pyridin-7-ylmethyl)urea] displayed an IC50 of 634 nM.

Take `O=C(NCc1cn2ccnc2cn1)c1ccc(-c2cnn(CCN3CCNCC3)c2)s1` [Example 894, N-(imidazo[1,2-a]pyrazin-6-ylmethyl)-5-{1-[2-(piperazin-1-yl)ethyl]-1H-pyrazol-4-yl}thiophene-2-carboxamide]: 202 nM corresponded to half-maximal inhibition (IC50).

Consider `CC(C)c1ncncc1C(=O)N1CCC(c2ccc(C(=O)NCc3ccn4ccnc4c3)cc2)CC1` [Example 1104, N-(imidazo[1,2-a]pyridin-7-ylmethyl)-4-(1-{[4-(propan-2-yl)pyrimidin-5-yl]carbonyl}piperidin-4-yl)benzamide], for which 6.96 nM corresponded to half-maximal inhibition (IC50).

Regarding `CC(C)C(=O)N1CCC(c2ccc(NC(=O)Cc3ccn4ccnc4c3)cc2)CC1` [Example 903, 2-(imidazo[1,2-a]pyridin-7-yl)-N-{4-[1-(2-methylpropanoyl)piperidin-4-yl]phenyl}acetamide], the concentration for half-maximal inhibition (IC50) came to 35.2 nM.

As for `CC1CC(C#N)(C(=O)N2CCC(c3ccc(NC(=O)NCc4ccn5ccnc5c4)cc3)CC2)C1` (stereo not drawn) [Example 1127, 1-(4-{1-[(1-cyano-3-methylcyclobutyl)carbonyl]piperidin-4-yl}phenyl)-3-(imidazo[1,2-a]pyridin-7-ylmethyl)urea], the concentration for half-maximal inhibition (IC50) stood at 2.99 nM.

`CC(C)(C)Cn1cc(-c2ccc(C(=O)NCc3cn4ccnc4cn3)s2)cn1` [Example 858, 5-[1-(2,2-dimethylpropyl)-1H-pyrazol-4-yl]-N-(imidazo[1,2-a]pyrazin-6-ylmethyl)thiophene-2-carboxamide]: half-maximal inhibition (IC50) was put at 0.59 nM.
